Experimental data from patent US9745629B2, “In vitro method for screening for candidate compounds for preventing and/or attenuating ageing of the skin, and/or for hydrating the skin” (CHANEL PARFUMS BEAUTE, priority 2011, dated 2017).
Values joined by “and” are separate entries in the source; they are usually repeats but may differ in a detail not shown here. Identical values can stand only once.

Tested on: LARGE protein
Test: Stimulation of the expression of LARGE protein in normal human keratinocytes (immunocytochemical staining)
Type: cell-based
Conditions: 48 hours, visual staining scale from 1 to 5, untreated keratinocytes 2.03, one donor
Method: The effect of the Resveratrol used in Example 4 on the expression of the LARGE protein was evaluated in cultured keratinocytes. Keratinocytes derived from neonatal foreskin (Invitrogen, CA, USA) were cultivated in 6-well plates containing cover glasses coated with poly-L-ornithine (Sigma, MO) in keratinocyte culture medium with supplement (EpiLife, Invitrogen). After culturing for 24 hours at 37° C., the 40-50% confluent cells were washed with PBS buffer (Invitrogen, CA) and incubated with basal keratinocytes culture medium (EpiLife, Invitrogen) containing the extract to be tested, for 48 hours. The cytotoxicity of the extract was evaluated in human cultured keratinocytes before testing the activity. To quantify the expression of the LARGE protein in a treated sample relative to an untreated sample, immunocytochemical staining (ICC) of cover glasses with cultured keratinocytes was used. Staining was performed in triplicates, with primary goat anti-human LARGE antibodies (Santa Cruz, Calif.) and secondary donkey anti-goat antibodies (Rockland Immunochemicals, PA). The staining was visualized with AEC system (Lab Vision Corporation, CA). The extent of staining was assessed on thirty random images for each experimental condition, and a visual assessment of the staining was made using a scale from 1 to 5, with 1 being the least intense and 5 being the most intense. The significance of the difference between mean values was assessed using unpaired t test.

With `Oc1ccc(C=Cc2cc(O)cc(O)c2)cc1` [Resveratrol] the “Stimulation of LARGE protein” value (0.0005% (w/w)) was 2.7 (±0.88) and 2.70, the “Stimulation of LARGE protein” value (0.001% (w/w)) was 2.67 (±0.55) and 2.67 and the “Stimulation of LARGE protein” value (0.002% (w/w)) was 3.8 (±0.93) and 3.80.
